# Publication PMC4826192 (Oncotarget, 2015)
# System: MPNST (malignant peripheral nerve sheath tumor) cells
# Assay: Cell viability assay (Dojindo CCK-8)
# Conditions: 72 hours
smiles,measurement,value
Cc1ccc(Nc2nccc(N(C)c3ccc4c(C)n(C)nc4c3)n2)cc1S(N)(=O)=O [pazopanib],"inhibition of MPNST cell proliferation, pazopanib versus MGCD516",similar
